# Assay results from PubChem BioAssay (NCI).
#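 In this assay, cells in 96-well plates receive the compound at five concentrations for 48 hours. Endpoints are linearly interpolated between the surrounding concentrations. GI50 = concentration required for 50% inhibition of growth. TGI: total growth inhibition.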
# Tested on: MDA-MB-468 breast
# Test: NCI-60 cell line screen, 48 h
Compound,GI50 [µM],TGI [µM]
O=C(Cc1ccccc1)NC(c1ccc(Cl)cc1)c1c(O)ccc2ccccc12 (centres undefined),1.99,5.53
Cc1nn(-c2ccccc2)c2nc3c(nc12)C1=NCCN1C(c1ccc(Cl)cc1)N3 (centres undefined),1.65,3.23
C/C(=C\CCc1ccsc1)CC/C=C(\C)CCCN1CCC(CO)CC1,1.48,3.29
CCN(CC)CCCC(Cc1ccccc1)Nc1c2ccc(Cl)cc2nc2ccc(OC)cc12 (centres undefined),1.7,3.67
CCN(CC)CCCCNc1ncc2cc(-c3cc(OC)cc(OC)c3)c(NC(=O)NC(C)(C)C)nc2n1,8.81,21.7
COc1cccc(Cn2c(-c3nonc3NC(C)=O)nc3ccccc32)c1,1.45,6.36
N#C/C(=C1C=C/C(=N\O)C(Cl)=C\1)c1ccccc1,0.92,17.5
Cn1ccnc1C(=O)/C=C/c1ccc(CC(=O)Nc2ccc(F)cc2)cc1,1.72,5.8
O=C(NCCNc1nccc(-c2c(-c3cccc(O)c3)nc3sccn23)n1)Nc1cccc(C(F)(F)F)c1,1.67,3.33
Cc1cc(C)c2nc3nc(C)cc(C)c3c(N)c2c1,3.61,14.9
S=C(c1ccc2c(c1)OCO2)N1CCN(c2cccc(Cl)c2)CC1,0.34,> 36.8
O=C(Nc1ccc(OCc2nnc(-c3ccccc3)o2)c(F)c1)Nc1ccc(Cl)c(C(F)(F)F)c1,1.9,6.93
C/C(=C(\c1ccc(O)cc1)c1ccc(OCCN2CCCCCC2)cc1)c1ccc(Cl)cc1,1.13,4.51
Cc1cc2cc3cc(C)c(N)cc3[n+](C)c2cc1N,0.243,1.3
CS(=O)(=O)c1ccc(Oc2cc(F)cc(C#N)c2)c2c1[C@H](O)C(F)(F)C2,> 100,> 100
C=C(C)[C@@H]1CC[C@]2(C(=O)O)CC[C@]3(C)[C@H](CC[C@@H]4[C@@]5(C)C/C(=C/c6ccc(OC)cc6)C(=O)C(C)(C)[C@@H]5CC[C@]43C)[C@@H]12,1.81,7
COc1ccc(-c2nc(N3CCOCC3)c3sc(CN(C)c4ncc(C(=O)NO)cn4)cc3n2)cn1,< 0.0104,0.0968
CC1(C)N=C(N)N=C(N)N1c1cccc(CCCCOc2ccccc2)c1,0.0775,4.08
O=C1CC[C@H](c2ccc(O)c3c2C(=O)[C@@H]2O[C@@H]2C3=O)c2cccc(O)c21,1.61,4.27
COc1ccc2cc(Cn3cc[n+](Cc4ccc5ccccc5c4)c3)ccc2c1,0.487,2.57
COc1nc(N)nc2c1ncn2[C@@H]1O[C@H](CO)[C@@H](O)[C@@H]1O,> 100,> 100

Compound,GI50 [µM],TGI [µM]
N=c1n(Cc2ccccc2)c(N)cc(=O)n1Cc1ccccc1,4.82,21.2
CC1OC(n2c3ccccc3c3c4c(c5c6ccccc6[nH]c5c32)C(=O)N(CCN2CCOCC2)C4=O)CC(O)C1O (centres undefined),1.57,4.57
COC1=C2C[C@@H](C)C[C@@H](OC)[C@@H](O)[C@H](C)/C=C(\C)[C@@H](OC(N)=O)[C@H](OC)/C=C\C=C(/C)C(=O)NC(=CC1=O)C2=O,0.0153,0.577
H-HIIKKIRTWYRKAWHVLGKV-NH2,6.38,39
COc1cc(C2CC(c3ccccc3)=NN2C(C)=O)cc(OC)c1OC (centres undefined),3.34,37.1
O=C(NCCNc1nccc(-c2c(-c3ccc(F)cc3)nc3sccn23)n1)c1ccccc1,4.48,44.5
O=C1CCC(N2Cc3c(C#CCCCNC(=O)c4cc5c(o4)C(=O)c4ccccc4C5=O)cccc3C2=O)C(=O)N1 (centres undefined),2.13,6.25
COc1ccc(CCN2CCC(Nc3nc4ccccc4n3Cc3ccc(F)cc3)CC2)cc1,1.15,2.44
C#C[C@]1(O)CC[C@H]2[C@@H]3CC=C4c5sc(Nc6cccc(F)c6)nc5CC[C@]4(C)[C@H]3CC[C@@]21C,1.24,2.91
COc1cc(NC(=O)CSc2nc3ccccc3c(=O)n2CCc2ccccc2)cc(OC)c1OC,2.2,7.13
CCOC(=O)c1c(Cl)c2c(n1Cc1cccc(OC)c1)-c1oncc1CC2,0.652,5.87
COc1ccc(-c2nn(-c3cccc(NC(=O)c4cccc(C(F)(F)F)c4)c3)cc2-c2ccncc2)cc1Cl,1.68,9.61
Cc1[nH]nc2ccc3nc(-c4ccc5[nH]ncc5c4)c4c(c3c12)CCCC4,1.02,4.38
C=CC[C@@H]1/C=C(\C)C[C@H](C)C[C@H](OC)[C@H]2O[C@@](O)(C(=O)C(=O)N3CCCC[C@H]3C(=O)O[C@H](/C(C)=C/C3CC[C@@H](O)[C@H](OC)C3)[C@H](C)[C@@H](O)CC1=O)[C@H](C)C[C@@H]2OC (some centres undefined),12.2,27.3
O=C(CN1C(=O)S/C(=C\C(Cl)=C\c2ccccc2)C1=O)NCCc1ccc(O)cc1,1.27,3.54
COc1ccc(OC)c(/C=C2\COc3ccc(O)c(O)c3C2=O)c1,1.66,5.25
O=C1/C(=C/c2ccccc2F)CN(C(=O)C(Cl)Cl)C/C1=C\c1ccccc1F,0.277,1.11
Clc1ccc(C2=NN[C@H](c3cn(-c4ccccc4)nc3-c3ccccc3)C2)cc1,4.22,18.2
CCn1c(-c2nonc2N)nc2cncc(C(=O)NCCNC)c21,1.9,14.6
O=S(=O)(CCNCc1ccc(-c2ccc3ncnc(Nc4ccc(OCc5cccc(F)c5)c(Cl)c4)c3c2)o1)c1ccccc1,0.217,7.79
CC(C)n1c(=O)n(C)c2cnc3cc(F)c(-c4ccc(OCCCN5CCCCC5)nc4)cc3c21,4.98,26
